Values quoted from earlier work, collected in patent publication US7563779B2, “L-ergothioneine, milk thistle, and S-adenosylmethionine for the prevention, treatment and repair of liver damage” (Nutramax Laboratories, priority 1998, dated 2009).

Experiments:
[1] = tested on: lipid peroxidation in liver tissue; conditions: exogenous L-ergothioneine, liver tissue of rats
[2] = tested on: lipid peroxide formation in mouse liver homogenate; conditions: FIG. 5
liver lipid accumulation = conditions: rats chronically intoxicated with ethanol
[3] = tested on: liver nodules, pre-neoplastic lesions and hepatocellular carcinomas; conditions: administration of SAMe

Compound	lipid peroxidation by toxic compounds [1]	LPO formation [2]	decomposition of existing LPO [2]	lipid accumulation (liver lipid accumulation)	amount of early reversible nodules [3]	development of late pre-neoplastic lesions and hepatocellular carcinomas [3]
C[N+](C)(C)[C@@H](Cc1c[nH]c(=S)[nH]1)C(=O)[O-] [L-ergothioneine]	prevent lipid peroxidation	inhibited LPO formation	enhanced the decomposition of existing LPO			
C[S+](CC[C@H](N)C(=O)O)C[C@H]1O[C@@H](n2cnc3c(N)ncnc32)[C@H](O)[C@@H]1O (stereo partly drawn) [SAMe, S-adenosylmethionine]				decrease lipid accumulation	fall in the amount of early reversible nodules	prevention of the development of late pre-neoplastic lesions and hepatocellular carcinomas
